Laboratory results: PMC9250534, “Synthesis and direct assay of large macrocycle diversities by combinatorial late-stage modification at picomole scale” (Nature Communications, 2022)
Numbered stars: 1 amine (or outer) side, 2 acyl side, 3 side chain; on linkers, the order of the positions; unused ones are H or OH. Bridge positions count the residues as written; N and C are the ends. Square brackets hold non-standard residues; d marks the D form. Peptide text beside a SMILES is read from it. * marks the point of attachment. ξ: configuration not given here. Pro(cis-4-NH-(E)-Cinnamoyl) = O=C(/C=C/c1ccccc1)N[C@@H]1CN[C@H](C(=O)O)C1; Pro(cis-4-NHBenzoyl(4-Cl)) = O=C(N[C@@H]1CN[C@H](C(=O)O)C1)c1ccc(Cl)cc1; ξPro(4-NHCO(5-Cl-2-thienyl)) = O=C(NC1CNC(C(=O)O)C1)c1ccc(Cl)s1; 2Thenoyl(5-Cl) = O=C(c1ccc(Cl)s1)*; Benzoyl(4-Cl) = O=C(c1ccc(Cl)cc1)*; Cysteamide = C(CS[*:3])N[*:1]; X1 = O=C(/C=C/c1ccccc1)*; Api = NC1(C(=O)O)CCNCC1; Dap = NC[CH](N)C(=O)O; Mpa = O=C(O)CCS

Molecular target: MDM2 (Homo sapiens, UniProt Q00987)
Assay: MDM2 binding screen: displacement of fluorescent p53 peptide probe FP53 (fluorescence polarization)
Conditions: for fraction fluorescent probe displaced, Screen: initial screen; for fraction fluorescent probe displaced, Screen / fraction fluorescent probe displaced, Replicate: crude macrocycle reactions
Experimental: We screened Library 2 in 384-microwell plates by dispensing the target protein MDM2 and reporter peptide into the wells containing the macrocycle reactions.
The products were screened for displacement of a p53-based fluorescent peptide from human MDM2. Final macrocycle concentrations were 10 µM. For each macrocycle, the MDM2 binding was measured once.
One fluorescence anisotropy reading was taken with a Tecan Infinite F200 Pro fluorescence plate reader (excitation at 485 nm, emission at 535 nm) at 25 °C. Data was collected and exported using the Tecan Infinite M200 Pro instrument software. The data was analyzed by Excel (version 2016).

Sequence of MDM2 (Q00987 whole entry): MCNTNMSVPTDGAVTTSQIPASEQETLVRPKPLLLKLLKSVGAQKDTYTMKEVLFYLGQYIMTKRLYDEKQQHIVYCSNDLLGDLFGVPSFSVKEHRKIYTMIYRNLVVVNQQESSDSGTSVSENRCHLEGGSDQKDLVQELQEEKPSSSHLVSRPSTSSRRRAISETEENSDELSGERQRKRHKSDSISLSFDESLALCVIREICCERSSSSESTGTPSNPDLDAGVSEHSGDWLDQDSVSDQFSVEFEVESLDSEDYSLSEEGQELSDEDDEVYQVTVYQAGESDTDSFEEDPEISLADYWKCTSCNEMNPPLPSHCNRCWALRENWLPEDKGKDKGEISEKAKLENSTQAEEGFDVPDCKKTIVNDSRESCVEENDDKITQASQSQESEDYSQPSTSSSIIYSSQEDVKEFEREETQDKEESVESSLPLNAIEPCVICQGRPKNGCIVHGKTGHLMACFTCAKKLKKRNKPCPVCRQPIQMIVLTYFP

Row | SMILES | fraction fluorescent probe displaced, Screen (Acid 25) | fraction fluorescent probe displaced, Replicate (Acid 25) | fraction fluorescent probe displaced, Screen (Acid 14) | fraction fluorescent probe displaced, Replicate (Acid 14) | also measured
1 | O=C1CCSSCCNC(=O)C(Cc2c[nH]c3ccccc23)NC(=O)C2CN(C(=O)c3ccc(Cl)cc3)CCN2C(=O)CCN1 (mixture of isomers) [X B2 D7 W Acid 25] | 0.15 | 0.07 | – | – | –
2 | O=C1CCSSCCNC(=O)C2CN(C(=O)c3ccc(Cl)cc3)CCN2C(=O)C(Cc2ccccc2)NC(=O)CCN1 (mixture of isomers) [X B2 F D7 Acid 25] | -0.07 | 0.0465 | – | – | –
3 | O=C1CCSSCCNC(=O)C2CN(C(=O)c3ccc(Cl)s3)CCN2C(=O)C(Cc2c[nH]c3ccccc23)NC(=O)CCN1 (mixture of isomers) [X B2 W D7 Acid 14] | – | – | 0.23 | 0.10 | –
4 | O=C1CCSSCCNC(=O)C(Cc2ccccc2)NC(=O)C2CN(C(=O)C=Cc3ccccc3)CCN2C(=O)c2cccc(c2)CN1 (mixture of isomers) [X B5 D7 F Acid 91] | – | – | – | – | fraction fluorescent probe displaced, Screen (Acid 91): -0.10; fraction fluorescent probe displaced, Replicate (Acid 91): -0.00827
5 | O=C1NC(Cc2c[nH]c3ccccc23)C(=O)NCCSSCCC(=O)N2CCN(C(=O)c3ccc(Cl)cc3)CC2C(=O)N2CCCC1C2 (mixture of isomers) [X D7 B4 W Acid 25] | 0.25 | 0.25 | – | – | –
6 | O=C1CCSSCCNC(=O)C2CCCN2C(=O)C2CN(C(=O)C=Cc3ccccc3)CCN2C(=O)C(Cc2ccccc2)N1 (mixture of isomers) [X F D7 B1 Acid 91] | – | – | – | – | fraction fluorescent probe displaced, Screen (Acid 91): -0.0241; fraction fluorescent probe displaced, Replicate (Acid 91): -0.06
7 | O=C1CCSSCCNC(=O)C2CN(C(=O)C=Cc3ccccc3)CCN2C(=O)C2CCCN2C(=O)C(Cc2c[nH]c3ccccc23)N1 (mixture of isomers) [X W B1 D7 Acid 91] | – | – | – | – | fraction fluorescent probe displaced, Screen (Acid 91): 0.22; fraction fluorescent probe displaced, Replicate (Acid 91): 0.07
8 | O=C1CCSSCCNC(=O)C2CN(C(=O)c3ccc(Cl)s3)CCN2C(=O)CCNC(=O)C(Cc2c[nH]c3ccccc23)N1 (mixture of isomers) [X W B2 D7 Acid 14] | – | – | 0.08 | 0.17 | –
9 | O=C1CCSSCCNC(=O)C2CCCN2C(=O)C2CN(C(=O)C=Cc3ccccc3)CCN2C(=O)C(Cc2c[nH]c3ccccc23)N1 (mixture of isomers) [X W D7 B1 Acid 91] | – | – | – | – | fraction fluorescent probe displaced, Screen (Acid 91): -0.08; fraction fluorescent probe displaced, Replicate (Acid 91): 0.0168
10 | CC(C)=CCCC(C)CC(=O)NCC1NC(=O)C2CCCN2C(=O)CCSSCCNC(=O)C(Cc2c[nH]c3ccccc23)NC1=O (mixture of isomers) [X-B1-D3-W + A84] | – | – | – | – | fraction fluorescent probe displaced (10 µM macrocycle concentration, crude acylated macrocycle (scaffold Mpa-AA1-AA2-AA3 x carboxylic acid), p53-based fluorescent peptide, human MDM2): 0.05085
11 | O=C(NC[C@@H]1NC(=O)[C@@H]2CCCN2C(=O)CCSSCCNC(=O)[C@H](Cc2ccccc2)NC1=O)c1ccc(Cl)cc1 [X B1 D3 F Acid 25] ([Mpa]P[Dap](Benzoyl(4-Cl))F-Cysteamide; disulfide 1-C) | 0.22 | 0.22 | – | – | –
12 | O=C(/C=C/c1ccccc1)NC[C@@H]1NC(=O)[C@@H]2CCCN2C(=O)CCSSCCNC(=O)[C@H](Cc2ccccc2)NC1=O [X B1 D3 F Acid 91] ([Mpa]P[Dap](X1)F-Cysteamide; disulfide 1-C) | – | – | – | – | fraction fluorescent probe displaced, Screen (Acid 91): 0.08; fraction fluorescent probe displaced, Replicate (Acid 91): 0.0168
13 | O=C(NC[C@@H]1NC(=O)[C@@H]2CCCN2C(=O)CCSSCCNC(=O)[C@H](Cc2c[nH]c3ccccc23)NC1=O)c1ccc(Cl)s1 [X B1 D3 W Acid 14] ([Mpa]P[Dap](2Thenoyl(5-Cl))W-Cysteamide; disulfide 1-C) | – | – | 0.17 | 0.10 | –
14 | O=C(NCC1NC(=O)C2CCCN2C(=O)CCSSCCNC(=O)C(Cc2c[nH]c3ccccc23)NC1=O)c1ccc(Cl)cc1 (stereo not drawn) [X B1 D3 W Acid 25] ([Mpa]P[Dap](Benzoyl(4-Cl))W-Cysteamide; disulfide 1-C; configuration not given here) | 0.22 | 0.20 | – | – | –
15 | O=C(/C=C/c1ccccc1)NC[C@@H]1NC(=O)[C@@H]2CCCN2C(=O)CCSSCCNC(=O)[C@H](Cc2c[nH]c3ccccc23)NC1=O [X B1 D3 W Acid 91] ([Mpa]P[Dap](X1)W-Cysteamide; disulfide 1-C) | – | – | – | – | fraction fluorescent probe displaced, Screen (Acid 91): 0.11; fraction fluorescent probe displaced, Replicate (Acid 91): 0.07
16 | O=C(N[C@H]1C[C@H]2C(=O)N[C@@H](Cc3ccccc3)C(=O)NCCSSCCC(=O)N3CCC[C@H]3C(=O)N2C1)c1ccc(Cl)cc1 [X B1 D5 F Acid 25] ([Mpa]P[Pro(cis-4-NHBenzoyl(4-Cl))]F-Cysteamide; disulfide 1-C) | 0.16 | 0.15 | – | – | –
17 | O=C(NC1CC2C(=O)NC(Cc3c[nH]c4ccccc34)C(=O)NCCSSCCC(=O)N3CCCC3C(=O)N2C1)c1ccc(Cl)s1 (stereo not drawn) [X B1 D5 W Acid 14] ([Mpa]P[ξPro(4-NHCO(5-Cl-2-thienyl))]W-Cysteamide; disulfide 1-C; configuration not given here) | – | – | 0.28 | 0.0465 | –
18 | O=C(/C=C/c1ccccc1)N[C@H]1C[C@H]2C(=O)N[C@@H](Cc3c[nH]c4ccccc34)C(=O)NCCSSCCC(=O)N3CCC[C@H]3C(=O)N2C1 [X B1 D5 W Acid 91] ([Mpa]P[Pro(cis-4-NH-(E)-Cinnamoyl)]W-Cysteamide; disulfide 1-C) | – | – | – | – | fraction fluorescent probe displaced, Screen (Acid 91): 0.03; fraction fluorescent probe displaced, Replicate (Acid 91): 0.04
19 | O=C1NCCSSCCC(=O)N2CCC[C@H]2C(=O)NC2(CCN(C(=O)c3ccc(Cl)s3)CC2)C(=O)N[C@H]1Cc1ccccc1 [X B1 D6 F Acid 14] ([Mpa]P[Api](2Thenoyl(5-Cl))F-Cysteamide; disulfide 1-C) | – | – | -0.0116 | 0.07 | –
20 | O=C1NCCSSCCC(=O)N2CCC[C@H]2C(=O)NC2(CCN(C(=O)/C=C/c3ccccc3)CC2)C(=O)N[C@H]1Cc1ccccc1 [X B1 D6 F Acid 91] ([Mpa]P[Api](X1)F-Cysteamide; disulfide 1-C) | – | – | – | – | fraction fluorescent probe displaced, Screen (Acid 91): -0.10; fraction fluorescent probe displaced, Replicate (Acid 91): 0.05
21 | O=C1NCCSSCCC(=O)N2CCC[C@H]2C(=O)NC2(CCN(C(=O)/C=C/c3ccccc3)CC2)C(=O)N[C@H]1Cc1c[nH]c2ccccc12 [X B1 D6 W Acid 91] ([Mpa]P[Api](X1)W-Cysteamide; disulfide 1-C) | – | – | – | – | fraction fluorescent probe displaced, Screen (Acid 91): -0.08; fraction fluorescent probe displaced, Replicate (Acid 91): -0.08
22 | O=C1NCCSSCCC(=O)N2CCCC2C(=O)N2CCN(C(=O)c3ccc(Cl)cc3)CC2C(=O)NC1Cc1c[nH]c2ccccc12 (stereo not drawn) [X B1 D7 W Acid 25] | 0.09 | 0.10 | – | – | –
23 | O=C(NC[C@@H]1NC(=O)[C@H](Cc2ccccc2)NC(=O)[C@@H]2CCCN2C(=O)CCSSCCNC1=O)c1ccc(Cl)s1 [X B1 F D3 Acid 14] ([Mpa]PF[Dap](2Thenoyl(5-Cl))-Cysteamide; disulfide 1-C) | – | – | 0.08 | 0.10 | –
24 | O=C(NC[C@@H]1NC(=O)[C@H](Cc2ccccc2)NC(=O)[C@@H]2CCCN2C(=O)CCSSCCNC1=O)c1ccc(Cl)cc1 [X B1 F D3 Acid 25] ([Mpa]PF[Dap](Benzoyl(4-Cl))-Cysteamide; disulfide 1-C) | 0.09 | 0.20 | – | – | –
25 | O=C(NC1CC2C(=O)NCCSSCCC(=O)N3CCCC3C(=O)NC(Cc3ccccc3)C(=O)N2C1)c1ccc(Cl)s1 (stereo not drawn) [X B1 F D5 Acid 14] ([Mpa]PF[ξPro(4-NHCO(5-Cl-2-thienyl))]-Cysteamide; disulfide 1-C; configuration not given here) | – | – | 0.11 | 0.07 | –
26 | O=C1NC2(CCN(C(=O)c3ccc(Cl)s3)CC2)C(=O)NCCSSCCC(=O)N2CCCC2C(=O)NC1Cc1ccccc1 (stereo not drawn) [X B1 F D6 Acid 14] ([Mpa]PF[Api](2Thenoyl(5-Cl))-Cysteamide; disulfide 1-C; configuration not given here) | – | – | 0.08 | 0.07 | –

The next lines start with results.

Row | fraction fluorescent probe displaced, Screen (Acid 25) | fraction fluorescent probe displaced, Replicate (Acid 25) | fraction fluorescent probe displaced, Screen (Acid 14) | fraction fluorescent probe displaced, Replicate (Acid 14) | SMILES | also measured
27 | – | – | -0.00483 | 0.0465 | O=C1CCSSCCNC(=O)C(Cc2ccccc2)NC(=O)C2CN(C(=O)c3ccc(Cl)s3)CCN2C(=O)c2cccc(c2)CN1 (mixture of isomers) [X B5 D7 F Acid 14] | –
28 | -0.00813 | 0.17 | – | – | O=C1CCSSCCNC(=O)C2CN(C(=O)c3ccc(Cl)cc3)CCN2C(=O)C(Cc2ccccc2)NC(=O)c2cccc(c2)CN1 (mixture of isomers) [X B5 F D7 Acid 25] | –
29 | -0.04 | 0.07 | – | – | O=C1CCNC(=O)C2CN(C(=O)c3ccc(Cl)cc3)CCN2C(=O)CCSSCCNC(=O)C(Cc2ccccc2)N1 (mixture of isomers) [X D7 B2 F Acid 25] | –
30 | – | – | 0.11 | 0.17 | O=C1NCCSSCCC(=O)N2CCN(C(=O)c3ccc(Cl)s3)CC2C(=O)NC(Cc2ccccc2)C(=O)NCc2cccc1c2 (mixture of isomers) [X D7 F B5 Acid 14] | –
31 | 0.61 | 0.58 | – | – | O=C1NCCSSCCC(=O)N2CCN(C(=O)c3ccc(Cl)cc3)CC2C(=O)NC(Cc2c[nH]c3ccccc23)C(=O)NCc2cccc1c2 (mixture of isomers) [X D7 W B5 Acid 25] | –
32 | 0.09 | 0.07 | – | – | O=C1CCSSCCNC(=O)c2cccc(c2)CNC(=O)C2CN(C(=O)c3ccc(Cl)cc3)CCN2C(=O)C(Cc2ccccc2)N1 (mixture of isomers) [X F D7 B5 Acid 25] | –
